Data from ChEMBL document CHEMBL3046845, “A facile synthesis of novel optically active R,R-2-(4-(2-(4-(5-chloro-3-halo-pyridin-2-yloxy)-phenoxy)-propionyloxy)-phenoxy)-propionic acid esters using cyanuric chloride as potential herbicide” (Chin Chem Lett, 2011).

How the values were obtained:
[1] = test system: Echinochloa crus-galli; assay: Herbicidal activity against Echinochloa crus-galli (barnyard grass) assessed as growth inhibition at 125 g/ha after 3 weeks relative to control; type: functional; conditions: 504 h, read-out: GI
[2] = test system: Avena fatua; assay: Herbicidal activity against Avena fatua assessed as growth inhibition at 125 g/ha after 3 weeks relative to control; type: functional; conditions: 504 h, read-out: GI
[3] = Phytoxicity against Hordeum vulgare (barley) assessed as growth inhibition at 125 g/ha after 3 weeks relative to control; type: organism-based; conditions: in vivo, read-out: GI
[4] = test system: Alopecurus myosuroides; assay: Herbicidal activity against Alopecurus myosuroides assessed as growth inhibition at 125 g/ha after 3 weeks relative to control; type: functional; conditions: 504 h, read-out: GI
[5] = Phytotoxicity against Triticum aestivum (wheat) assessed as growth inhibition at 125 g/ha after 3 weeks relative to control; type: organism-based; conditions: in vivo, read-out: GI

Row | SMILES | inhibition of growth at 125 g/ha [1] [%] | inhibition of growth at 125 g/ha [2] [%] | inhibition at 504 h [3] [%] | inhibition of growth at 125 g/ha [4] [%] | inhibition at 504 h [5] [%]
1 | COC(=O)[C@@H](C)Oc1ccc(Oc2ncc(Cl)cc2F)cc1 | 80 | 90 | 35 | 75 | 10
2 | COC(=O)[C@@H](C)Oc1ccc(OC(=O)[C@@H](C)Oc2ccc(Oc3ncc(Cl)cc3F)cc2)cc1 | 80 | 90 | 10 | 80 | 0
3 | CCOC(=O)[C@@H](C)Oc1ccc(Oc2ncc(Cl)cc2F)cc1 | 75 | 90 | 27 | 82 | 5
4 | CCOC(=O)[C@@H](C)Oc1ccc(OC(=O)[C@@H](C)Oc2ccc(Oc3ncc(Cl)cc3F)cc2)cc1 | 80 | 93 | 10 | 90 | 0
5 | CCCOC(=O)[C@@H](C)Oc1ccc(Oc2ncc(Cl)cc2F)cc1 | 62 | 84 | 35 | 76 | 10
6 | CCCOC(=O)[C@@H](C)Oc1ccc(OC(=O)[C@@H](C)Oc2ccc(Oc3ncc(Cl)cc3F)cc2)cc1 | 70 | 89 | 15 | 79 | 0
7 | CC(C)OC(=O)[C@@H](C)Oc1ccc(Oc2ncc(Cl)cc2F)cc1 | 57 | 81 | 30 | 73 | 10
8 | CC(C)OC(=O)[C@@H](C)Oc1ccc(OC(=O)[C@@H](C)Oc2ccc(Oc3ncc(Cl)cc3F)cc2)cc1 | 65 | 85 | 12 | 78 | 0
9 | CCCCOC(=O)[C@@H](C)Oc1ccc(Oc2ncc(Cl)cc2F)cc1 | 55 | 62 | 25 | 54 | 15
10 | CCCCOC(=O)[C@@H](C)Oc1ccc(OC(=O)[C@@H](C)Oc2ccc(Oc3ncc(Cl)cc3F)cc2)cc1 | 54 | 63 | 10 | 62 | 5
11 | C#CCOC(=O)[C@@H](C)Oc1ccc(OC(=O)[C@@H](C)Oc2ccc(Oc3ncc(Cl)cc3F)cc2)cc1 | 92 | 100 | 0 | 100 | 0
12 | COC(=O)[C@@H](C)Oc1ccc(Oc2ncc(Cl)cc2Cl)cc1 | 40 | 30 | 30 | 30 | 10
13 | COC(=O)[C@@H](C)Oc1ccc(OC(=O)[C@@H](C)Oc2ccc(Oc3ncc(Cl)cc3Cl)cc2)cc1 | 44 | 43 | 15 | 42 | 0
14 | CCOC(=O)[C@@H](C)Oc1ccc(Oc2ncc(Cl)cc2Cl)cc1 | 51 | 50 | 25 | 45 | 10
15 | CCOC(=O)[C@@H](C)Oc1ccc(OC(=O)[C@@H](C)Oc2ccc(Oc3ncc(Cl)cc3Cl)cc2)cc1 | 54 | 54 | 15 | 52 | 0
16 | CCCOC(=O)[C@@H](C)Oc1ccc(Oc2ncc(Cl)cc2Cl)cc1 | 40 | 45 | 18 | 35 | 15
17 | CCCOC(=O)[C@@H](C)Oc1ccc(OC(=O)[C@@H](C)Oc2ccc(Oc3ncc(Cl)cc3Cl)cc2)cc1 | 45 | 50 | 10 | 36 | 0
18 | C#CCOC(=O)[C@@H](C)Oc1ccc(Oc2ncc(Cl)cc2Cl)cc1 | 45 | 47 | 20 | 57 | 0
19 | C#CCOC(=O)[C@@H](C)Oc1ccc(OC(=O)[C@@H](C)Oc2ccc(Oc3ncc(Cl)cc3Cl)cc2)cc1 | 53 | 50 | 5 | 60 | 0
20 | C#CCOC(=O)[C@@H](C)Oc1ccc(Oc2ncc(Cl)cc2F)cc1 [CLODINAFOP PROPARGYL] | 82 | 95 | 20 | 88 | 0
